Reference: patent publication EP1005445B1, “N-ALKANOYLPHENYLALANINE DERIVATIVES” (F. HOFFMANN-LA ROCHE AG, priority 1997, dated 1999)
Where “and” joins values, the source holds several entries; their conditions need not be identical. Identical values can stand only once.

Columns and labels:
[1] = target: T1, VLA-4 (a4b1 integrin) (Homo sapiens, UniProt P05556+P13612); assay: VLA-4 / VCAM-1 Screening Assay (solid-phase, dual antibody ELISA); conditions: Ramos cell-derived VLA-4 binding to immobilized recombinant human VCAM-1, 1 mM MnCl2, 2 hr at 37 °C
T1 construct: followed by 10 µl of Ramos cell-derived VLA-4; endogenous in cells; host or cells: Ramos cells (VLA-4 preparation derived from the cells)
Description: VLA-4 / VCAM-1 Screening Assay
VLA-4 antagonist activity, defined as ability to compete for binding to immobilized VCAM-1, was quantitated using a solid-phase, dual antibody ELISA. VLA-4 (a4b1 integrin) bound to VCAM-1 is detected by a complex of anti-integrin b1 antibody: HRP-conjugated anti-mouse IgG: chromogenic substrate (K-Blue). Initially, this entailed coating 96 well plates (Nunc Maxisorp) with recombinant human VCAM-1 (0.4 µg in 100 µl PBS), sealing each plate and then allowing the plates to stand at 4°C for Å18 hr. […] On the day of assay, all plates are washed twice with VCAM Assay Buffer (200 µl/well of 50 mM Tris-HCl, 100 mM NaCl, 1 mM MnCl2, 0.05% Tween 20; pH 7.4). Test compounds are dissolved in 100% DMSO and then diluted 1:20 in VCAM Assay Buffer supplemented with 1mg/mL BSA (i.e., final DMSO = 5%). […] 100 µl per well of each dilution is added to the VCAM-coated plates, followed by 10 µl of Ramos cell-derived VLA-4. These plates are sequentially mixed on a platform shaker for 1 min, incubated for 2 hr at 37 °C, and then washed four times with 200 µl/well VCAM Assay Buffer. 100 µl of mouse anti-human integrin b1 antibody is added to each well (0.6 µg/mL in VCAM Assay Buffer + 1mg/mL BSA) and allowed to incubate for 1 hr at 37°C. At the conclusion of this incubation period, all plates are washed four times with VCAM Assay Buffer (200 µl/well). A corresponding second antibody, HRP-conjugated goat anti-mouse IgG (100 µl per well @ 1:800 dilution in VCAM Assay Buffer + 1mg/mL BSA), is then added to each well, followed by a 1 hr incubation at room temperature and concluded by three washes (200µl/well) with VCAM Assay Buffer. Color development is initiated by addition of 100 µl K-Blue per well (15 min incubation, room temp) and terminated by addition of 100 µl Red Stop Buffer per well. […] Results are calculated as % inhibition of total binding (i.e., VLA-4 + VCAM-1 in the absence of test compound).

[2] = target: T1, VLA-4 (a4b1 integrin); assay: Ramos (VLA-4) / VCAM-1 Cell-Based Screening Assay (cell adhesion)
Text: Ramos (VLA-4) / VCAM-1 Cell-Based Screening Assay Protocol
Calcein-AM was purchased from Molecular Probes Inc.
VLA-4 (a4b1 integrin) antagonist activity, defined as ability to compete with cell-surface VLA-4 for binding to immobilized VCAM-1, was quantitated using a Ramos-VCAM-1 cell adhesion assay. Ramos cells bearing cell-surface VLA-4, were labeled with a fluorescent dye (Calcein-AM) and allowed to bind VCAM-1 in the presence or absence of test compounds.
Initially, this entailed coating 96 well plates (Nunc Maxisorp) with recombinant human VCAM-1 (100 ng in 100 µl PBS), sealing each plate and allowing the plates to stand at 4°C for Å18 hr. The VCAM-coated plates were subsequently washed twice with 0.05% Tween-20 in PBS, and then blocked for 1hr (room temperature) with 200 µl of Blocking Buffer (1% BSA/0.02% thimerosal) to reduce non-specific binding. Following the incubation with Blocking Buffer, plates were inverted, blotted and the remaining buffer aspirated. Each plate was then washed with 300 µl PBS, inverted and the remaining PBS aspirated.
Test compounds were dissolved in 100% DMSO and then diluted 1:25 in VCAM Cell Adhesion Assay Buffer (4 mM CaCl2, 4 mM MgCl2 in 50 mM TRIS-HCl, pH 7.5) (final DMSO = 4%). […] 100 µl/well of each dilution was added to the VCAM-coated plates, followed by 100 µl of Ramos cells (200,000 cells/well in 1% BSA/PBS). […] Plates were inverted to remove non-adherent cells, blotted and 300 µl/well PBS added. Plates were again inverted, blotted and the remaining buffer gently aspirated. 100 µl Lysis Buffer (0.1% SDS in 50 mM TRIS-HCl, pH 8.5) was added to each well and agitated for 2 min on a rotary shaking platform.

[3] = Calcein-AM labeled Ramos cells adhering to immobilized recombinant human VCAM-1, 45 min at room temperature, read-out: Ramos IC50

T1 sequence (P13612 34-1032): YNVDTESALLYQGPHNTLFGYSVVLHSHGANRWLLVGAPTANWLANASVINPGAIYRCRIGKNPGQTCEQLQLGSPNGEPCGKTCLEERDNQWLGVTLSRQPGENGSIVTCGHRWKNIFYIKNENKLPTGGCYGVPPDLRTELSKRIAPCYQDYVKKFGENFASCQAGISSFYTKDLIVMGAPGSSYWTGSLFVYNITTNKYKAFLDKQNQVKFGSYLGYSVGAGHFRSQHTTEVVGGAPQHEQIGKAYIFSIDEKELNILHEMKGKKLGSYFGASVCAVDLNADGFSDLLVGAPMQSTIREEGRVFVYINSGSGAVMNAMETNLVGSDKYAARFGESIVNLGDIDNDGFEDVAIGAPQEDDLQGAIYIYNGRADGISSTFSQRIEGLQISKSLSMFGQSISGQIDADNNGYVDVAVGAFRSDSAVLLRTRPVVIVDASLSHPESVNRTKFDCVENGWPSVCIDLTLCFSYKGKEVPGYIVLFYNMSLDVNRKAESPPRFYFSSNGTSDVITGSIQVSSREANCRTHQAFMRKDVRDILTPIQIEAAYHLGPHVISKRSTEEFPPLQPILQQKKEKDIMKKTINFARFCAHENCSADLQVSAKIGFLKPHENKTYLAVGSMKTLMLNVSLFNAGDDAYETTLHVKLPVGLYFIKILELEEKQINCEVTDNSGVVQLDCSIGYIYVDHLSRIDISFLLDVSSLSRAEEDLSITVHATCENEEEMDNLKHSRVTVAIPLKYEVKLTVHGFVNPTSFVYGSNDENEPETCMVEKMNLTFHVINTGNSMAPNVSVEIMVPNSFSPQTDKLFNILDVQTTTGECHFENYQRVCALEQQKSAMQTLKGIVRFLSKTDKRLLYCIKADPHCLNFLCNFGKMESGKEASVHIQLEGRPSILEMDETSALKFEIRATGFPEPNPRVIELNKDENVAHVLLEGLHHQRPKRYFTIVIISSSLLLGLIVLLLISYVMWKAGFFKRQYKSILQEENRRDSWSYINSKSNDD
T1 sequence (P05556 21-798): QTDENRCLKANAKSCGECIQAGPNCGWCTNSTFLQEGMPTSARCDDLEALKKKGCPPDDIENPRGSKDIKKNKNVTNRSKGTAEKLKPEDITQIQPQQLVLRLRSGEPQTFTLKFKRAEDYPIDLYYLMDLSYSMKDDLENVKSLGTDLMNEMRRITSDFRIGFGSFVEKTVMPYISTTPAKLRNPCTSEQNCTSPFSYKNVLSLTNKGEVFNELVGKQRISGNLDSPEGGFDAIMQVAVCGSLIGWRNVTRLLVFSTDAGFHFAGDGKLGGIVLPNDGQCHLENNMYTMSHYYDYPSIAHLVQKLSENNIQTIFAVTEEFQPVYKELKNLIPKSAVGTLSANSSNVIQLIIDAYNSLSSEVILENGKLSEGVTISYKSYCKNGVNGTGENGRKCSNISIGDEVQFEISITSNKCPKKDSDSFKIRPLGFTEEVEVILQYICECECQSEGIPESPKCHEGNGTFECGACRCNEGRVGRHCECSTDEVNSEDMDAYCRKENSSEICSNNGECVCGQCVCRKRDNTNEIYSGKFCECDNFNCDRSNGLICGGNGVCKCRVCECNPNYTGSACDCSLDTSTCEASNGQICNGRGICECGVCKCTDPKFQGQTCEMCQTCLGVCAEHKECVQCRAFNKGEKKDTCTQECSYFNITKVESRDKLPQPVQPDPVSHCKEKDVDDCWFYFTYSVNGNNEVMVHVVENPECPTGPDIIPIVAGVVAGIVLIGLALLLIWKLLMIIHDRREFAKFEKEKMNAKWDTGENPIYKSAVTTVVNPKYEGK

| IC50 ([1]; read-out: ELISA IC50) | IC50 [2, 3] | Molecule | other results |
| --- | --- | --- | --- |
| 2.2 nM | 1630 nM | O=C(N[C@@H](Cc1ccc(NC(=O)c2c(Cl)cccc2Cl)cc1)C(=O)O)c1cccc(Cl)c1Cl [Example 20] | – |
| 0.47 nM | – | COC(=O)[C@H](Cc1ccc(N2C(=O)[C@@H](C(C)C)N(C)C2=O)cc1)NC(=O)c1c(C)cccc1Cl [Example 96, N-(2-Chloro-6-methylbenzoyl)-[(R)-2,5-dioxo-3-methyl-4-(1-methylethyl)-1-imidazolininyl]-L-phenylalanine methyl ester] | – |
| – | 351 nM | COc1ccc(C(=O)N[C@@H](Cc2ccc(NC(=O)c3c(Cl)cccc3Cl)cc2)C(=O)O)c(Cl)c1 [Example 19] | – |
| 0.46 nM | 33 nM | O=C(N[C@@H](Cc1ccc(NC(=O)c2c(Cl)cccc2Cl)cc1)C(=O)O)c1ccc(O)cc1Cl [Example 95] | – |
| 1.6 nM | 1320 nM | O=C(N[C@@H](Cc1ccc(NC(=O)c2c(Cl)cccc2Cl)cc1)C(=O)O)c1ccc(Br)cc1Cl [Example 22] | – |
| 1.2 nM | 23 nM | Cc1cccc(C(C)C)c1C(=O)N[C@@H](Cc1ccc(NC(=O)c2c(Cl)cccc2Cl)cc1)C(=O)O [Example 90] | – |
| 0.25 nM | – | COc1ccc(Br)c(C(=O)N[C@@H](Cc2ccc(NC(=O)c3c(Cl)cccc3Cl)cc2)C(=O)O)c1 [Example 24] | – |
| 0.25 nM | 9.5 nM | CS(=O)(=O)c1ccc(C(=O)N[C@@H](Cc2ccc(NC(=O)c3c(Cl)cccc3Cl)cc2)C(=O)O)c(Cl)c1 [Example 94] | – |
| 41 nM | – | CC(=O)N1[C@H](CC(C)C)C(=O)N(c2ccc(C[C@H](NC(=O)c3c(C)cccc3Cl)C(=O)O)cc2)[C@@H]1C(C)(C)C [Example 102] | – |
| 3.3 nM | – | CS(=O)(=O)c1ccccc1C(=O)N[C@@H](Cc1ccc(NC(=O)c2c(Cl)cccc2Cl)cc1)C(=O)O [Example 28] | – |
| 1.4 nM | 1270 nM | Cc1cccc(C(=O)N[C@@H](Cc2ccc(NC(=O)c3c(Cl)cccc3Cl)cc2)C(=O)O)c1Cl [Example 21] | – |
| 8.6 nM | – | COc1ccccc1C(=O)N[C@@H](Cc1ccc(NC(=O)c2c(Cl)cccc2Cl)cc1)C(=O)O [Example 26] | – |
| – | 114 nM | Cc1cc(C(F)(F)F)c(C(=O)N[C@@H](Cc2ccc(NC(=O)c3c(Cl)cccc3Cl)cc2)C(=O)O)c(C)n1 [Example 156] | – |
| 1.9 nM | – | CNc1ccccc1C(=O)N[C@@H](Cc1ccc(NC(=O)c2c(Cl)cccc2Cl)cc1)C(=O)O [Example 27] | – |

Continued, molecule first:

| Molecule | IC50 ([1]; read-out: ELISA IC50) | IC50 [2, 3] | other results |
| --- | --- | --- | --- |
| CC(C)c1cccc(C(C)C)c1C(=O)N[C@@H](Cc1ccc(NC(=O)c2c(Cl)cccc2Cl)cc1)C(=O)O [Example 18] | 11 nM | – | – |
| Cc1cccc(Cl)c1C(=O)N[C@@H](Cc1ccc(NC(=O)c2c(F)c(F)c(F)c(F)c2F)cc1)C(=O)O [Example 115, N-[1-(2-Chloro-6-methylphenyl)carbonyl]-4-[[(2,3,4,5,6-pentafluorophenyl)carbonyl]amino]-L-phenylalanine] | 4.5 nM | 678 nM | – |
| Cc1cc(C(F)(F)F)c(C(=O)Nc2ccc(C[C@H](NC(=O)c3c(C)cccc3Cl)C(=O)O)cc2)c(C)n1 [Example 150] | – | – | IC50 [2]: 47 nM |
| Cc1cccc(Cl)c1C(=O)N[C@@H](Cc1ccc(NC(=O)c2c(C)ccnc2C)cc1)C(=O)O [Example 107] | – | – | IC50 ([1]; ELISA IC50 nM): 0.79 nM; IC50 [2]: 20 nM |
| 4-[(2S,4R)-3-Acetyl-2-phenyl-4-(3-pyridinylmethyl)-5-oxo-1-imidazolinyl]-N-[(2-chloro-6-methylphenyl)carbonyl]-L-phenylalanine and 4-[(2R,4R)-3-acetyl-2-phenyl-4-(3-pyridinylmethyl)-5-oxo-1-imidazolinyl]-N-[(2-chloro-6-methylphenyl)carbonyl]-L-phenylalanine [Example 171] | – | 13.5 nM | – |
| Cc1cccc(Cl)c1C(=O)N[C@@H](Cc1ccc(NC(=O)c2c(F)cccc2F)cc1)C(=O)O [Example 114, N-[1-(2-Chloro-6-methylphenyl)carbonyl]-4-[[(2,6-difluorophenyl)carbonyl]amino]-L-phenylalanine] | 1.14 nM | – | – |
| C[S+]([O-])c1ccccc1C(=O)N[C@@H](Cc1ccc(NC(=O)c2c(Cl)cccc2Cl)cc1)C(=O)O (single isomer, unassigned) [Example 30, 4-[[(2,6-dichlorophenyl)carbonyl]amino]-N-[[2-(methylsulfinyl)phenyl]carbonyl]-L-phenylalanine] | 2 nM and 1.6 nM | – | – |
| O=C(Nc1ccc(C[C@H](NC(=O)c2cccc3ccccc23)C(=O)O)cc1)c1c(Cl)cccc1Cl [Example 15] | – | 2600 nM | – |
| Nc1ccc(C(=O)N[C@@H](Cc2ccc(NC(=O)c3c(Cl)cccc3Cl)cc2)C(=O)O)c(Cl)c1 [Example 124, N-[(4-amino-2-chlorophenyl)carbonyl]-4-[[(2,6-dichlorophenyl)carbonyl]amino]-L-phenylalanine] | 0.63 nM | 985 nM | – |
| Cc1cccc(Cl)c1C(=O)N[C@@H](Cc1ccc(NC(=O)c2c(Cl)cccc2Cl)cc1)C(=O)O [Example 13] | 0.33 nM | 15 nM | – |
| CC(=O)N1C(Cc2ccccc2)C(=O)N(c2ccc(C[C@H](NC(=O)c3c(C)cccc3Cl)C(=O)O)cc2)C1c1ccccc1 (single isomer, unassigned) [Example 170] | – | 33.5 nM | – |
| Cc1cccc(Cl)c1C(=O)N[C@@H](Cc1ccc(N2C(=O)c3ccc(C#N)cc3C2=O)cc1)C(=O)O [Example 125] | – | – | IC50 ([1]; read-out: ELISA IC50 nM): 1.7 nM |
| O=C(Nc1ccc(C[C@H](NC(=O)c2c(F)cccc2C(F)(F)F)C(=O)O)cc1)c1c(Cl)cccc1Cl [Example 16] | – | 85 nM | – |
| Cc1cccc(Cl)c1C(=O)Nc1ccc(C[C@H](NC(=O)c2c(Cl)cccc2Cl)C(=O)O)cc1 [Example 169, N-[(2,6-Dichlorophenyl)carbonyl]-4-[[(2-chloro-6-methylphenyl)carbonyl]amino]-L-phenylalanine] | – | 30 nM | – |
